Values of other authors, collected in patent publication US10172912B2, “Chemical induction of lactation in prepubescent non-human mammals” (priority 2009, dated 2019).

Key:
gravid horses = details: for udder development: gravid equine mares with endophyte-infected ryegrass toxicity, thirty days before foaling
non-pregnant mares = details: altrenogest/estradiol pessary week 1, estradiol pessary week 2 with twice daily drug

| Compound | udder development (gravid horses) | lactation (gravid horses; gravid horses with endophyte-infected ryegrass toxicity, administration for at least eighteen days) | bound to plasma proteins (plasma proteins) | induced lactation volume (non-pregnant mares) |
| --- | --- | --- | --- | --- |
| O=c1[nH]c2ccccc2n1CCCN1CCC(n2c(=O)[nH]c3cc(Cl)ccc32)CC1 [Domperidone] | increases udder development | increase lactation | 91-93% |  |
| CCN1CCCC1CNC(=O)c1cc(S(N)(=O)=O)ccc1OC (centres unmarked) [sulpiride] | increases udder development |  |  | ~1 liter per mare/day |
